Source: publication PMC9917023, “Stabilization of Monomeric Tau Protein by All D-Enantiomeric Peptide Ligands as Therapeutic Strategy for Alzheimer’s Disease and Other Tauopathies” (International Journal of Molecular Sciences, 2023)

Tested on: brain endothelial cells (RBMVEC) and astroglial cells (CTX TNA2)
Description: Each peptide was tested at different time points in triplicate next to an unseeded negative control (“Empty”) and quantitatively analyzed via HPLC using a calibration curve to determine the concentration of the peptide in the receiving chamber at each point in time (Figure 11). From these values, the volume of each chamber, and the respective time, a Papp permeability coefficient in cm²/s was calculated for each substance to represent its ability to cross the in vitro blood–brain barrier model.
An amount equaling 1 mg/mL TF2D-5 (A) or TF2D-5a (B) was added to an insert that was seeded and covered with endothelial and astroglial cells, representing the in vitro blood–brain barrier, or an empty insert serving as a control. After different time points, samples were taken and analyzed by quantitative HPLC analysis. Data given as mean ± SD out of three independent replicates.
Brain endothelial cells from rats and astroglial cells were used to cultivate the different sides of the porous membrane.
Brain endothelial cells from rats (RBMVEC, Cell Applications Inc., R840-05a, San Diego, CA, USA) were cultivated in Complete Classic medium (Cell Systems, Kirkland, WA, USA, 4Z0-500), and rat astroglial cells (CTX TNA2, ATCC, CRL-2006) were cultivated in Complete Classic medium (Cell Systems, Kirkland, WA, USA, 4Z0-500). The cells were allowed to grow in a humidified incubator with 5% CO2 at 37 °C and a maximum of 20 passages. The cells were passaged every 3 to 5 days, according to their confluence.
In order to set up the in vitro BBB model, the astroglial cells were seeded at a density of 600.000 cells/cm² on the outer (basolateral, “brain”) side of an insert with a porous membrane (Corning Transwell polycarbonate membrane cell culture inserts, CLS3415, 3 µM pore size) and allowed to grow/adhere overnight in the Complete Classic medium. The next day, brain endothelial cells were seeded at a density of 600.000 cells/cm² on the inner side (apical, “blood”) of the corresponding membrane. The seeded inserts were then cultivated to grow to full confluence over a period of 5 to 7 days, with the medium renewed daily. […] Prior to this, TEER (transendothelial electrical resistance values) were measured in each well to ensure the integrity of the in vitro BBB. At 0, 30, 60, 90, 120, 150, 180, and 240 min, 50 µL of the medium out of the outer chamber was taken and analyzed by HPLC. This 50 µL would then be replaced by the same amount of fresh serum-free medium to keep the fluid levels equal across both chambers. This slight dilution was factored into the following calculations. Furthermore, a dilution series of each reagent was analyzed alongside the samples as a calibration to quantify the analysis. […] The Papp values were calculated as follows (higher is better): Papp =(V/A∗C)∗(Dc/Dt)

Compound | Papp permeability coefficient [cm/s]
Cn1c(=O)c2c(ncn2C)n(C)c1=O [Caffeine, reference compound] | 3.18e-05
O=C1OC2(c3ccc(O)cc3Oc3cc(O)ccc32)c2ccccc21 [Fluorescein, reference compound] | 8.86e-07
